The target of one data set is T1, recombinant human MMP-1 (Homo sapiens, UniProt P03956).
T1 construct: made in house; host or cells: transfected HT-1080 cells (provided by Dr. Howard Welgus, Washington University)
T1 sequence (P03956 100-469): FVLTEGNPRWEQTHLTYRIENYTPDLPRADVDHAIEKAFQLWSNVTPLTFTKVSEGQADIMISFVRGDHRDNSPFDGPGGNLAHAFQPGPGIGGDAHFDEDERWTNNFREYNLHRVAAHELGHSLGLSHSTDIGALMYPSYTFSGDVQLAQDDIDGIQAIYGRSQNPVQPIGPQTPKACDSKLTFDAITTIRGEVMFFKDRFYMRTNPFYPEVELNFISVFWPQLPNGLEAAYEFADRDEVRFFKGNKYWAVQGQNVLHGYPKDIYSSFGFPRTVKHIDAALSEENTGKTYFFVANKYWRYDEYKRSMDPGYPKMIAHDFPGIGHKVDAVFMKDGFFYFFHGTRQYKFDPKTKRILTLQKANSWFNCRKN
Description: In vitro metalloprotease inhibition, fluorogenic MCA peptide substrate. Particulars: recombinant human MMP-1, APMA activated; room temperature; substrate 4 μM; 1 percent DMSO. The format is biochemical. Here is the method: (§1) Several of the compounds prepared in the manner described in the previous Examples were assayed for activity by an in vitro assay. Following the procedures of Knight et al., FEBS Lett. 296(3):263 (1992). Briefly, 4-aminophenylmercuric acetate (APMA) or trypsin activated MMPs were incubated with various concentrations of the inhibitor compound at room temperature for 5 minutes.
(§2) More specifically, recombinant human MMP-13 and MMP-1 enzymes were prepared in laboratories of the assignee. MMP-13 was expressed in baculovirus as a proenzyme, and purified first over a heparin agarose column and then over a chelating zinc chloride column. The proenzyme was activated by APMA for use in the assay. MMP-1 expressed in transfected HT-1080 cells was provided by Dr. Howard Welgus of Washington University, St. Louis, Mo. The enzyme was also activated using APMA and was then purified over a hydroxamic acid column.
(§3) The enzyme substrate is a methoxycoumarin-containing polypeptide having the following sequence:
(§4) MCA-ProLeuGlyLeuDpaAlaArgNH^2, wherein MCA is methoxycoumarin and Dpa is 3-(2,4-dinitrophenyl)-L-2,3-diaminopropionyl alanine. This substrate is commercially available from Baychem as product M-1895.
(§5) The buffer used for assays contained 100 mM Tris-HCl, 100 mM NaCl, 10 mM CaCl2 and 0.05 percent polyethyleneglycol (23) lauryl ether at a pH value of 7.5. Assays were carried out at room temperature, and dimethyl sulfoxide (DMSO) at a final concentration of 1 percent was used to dissolve inhibitor compound.
(§6) The assayed inhibitor compound in DMSO/buffer solution was compared to an equal amount of DMSO/buffer with no inhibitor as control using Microfluor™ White Plates (Dynatech). The inhibitor or control solution was maintained in the plate for 10 minutes and the substrate was added to provide a final concentration of 4 μM.
(§7) In the absence of inhibitor activity, a fluorogenic peptide was cleaved at the gly-leu peptide bond, separating the highly fluorogenic peptide from a 2,4-dinitrophenyl quencher, resulting in an increase of fluorescence intensity (excitation at 328 nm/emission at 415 nm). Inhibition was measured as a reduction in fluorescent intensity as a function of inhibitor concentration, using a Perkin Elmer L550 plate reader. The IC50 values were calculated from those values. The results are set forth in the Inhibition Table below, reported in terms of IC50.

The target of the next data set is T2, recombinant human MMP-13 (Homo sapiens, UniProt P45452).
T2 construct: made in house
The description is as above. The format is biochemical. The conditions noted are these: recombinant human MMP-13, APMA activated; room temperature; substrate 4 μM; 1 percent DMSO. The protocol:
as §1, §2, §3, §4, §5, §6, §7

Data set [1] deals with solid tumor cancers (colorectal, pancreatic, ovarian, prostate). The conditions noted are these: cited from earlier work.

Counter-ions that a name gives are not always drawn.

Take `Cc1cccc(Sc2ccc(S(=O)(=O)N(CCN3CCOCC3)[C@@H](C(=O)NO)C(C)C)cc2)c1` [Example 1g, N-hydroxy-3-methyl-2R-[[[4-[(3-methylphenyl)thio]phenyl]sulfonyl]-[2-(4-morpholinyl)-ethyl]amino]-butanamide, Monohydrochloride]: the IC50 on recombinant human MMP-1 was 1500 nM; on recombinant human MMP-13, 1.9 nM.

Turning to `Cc1ccc(Sc2ccc(S(=O)(=O)N(CCN3CCOCC3)[C@@H](C(=O)NO)C(C)C)cc2)cc1` [Example 2e, N-hydroxy-3-methyl-2R-[[[4-[(4-methylphenyl)-thio]phenyl]sulfonyl][2-(4-morpholinyl)ethyl]-amino]-butanamide, Monohydrochloride], the IC50 was 2000 nM at recombinant human MMP-1 and 0.5 nM on recombinant human MMP-13.

Turning to `C[C@H](C(=O)NO)N(CCN1CCOCC1)S(=O)(=O)c1ccc(Sc2ccccc2)cc1` [Example 3g, N-hydroxy-2R-[[2-(4-morpholinyl)ethyl][[4-(phenylthio)phenyl]sulfonyl]amino]propanamide], the figures for the IC50 on recombinant human MMP-1 and on recombinant human MMP-13 were 1800 nM and 0.5 nM, respectively.

Consider `Cc1ccc(Sc2ccc(S(=O)(=O)N(CCN3CCOCC3)[C@H](C)C(=O)NO)cc2)cc1` [Example 4f, N-hydroxy-2R-[[2-(4-morpholinyl)ethyl][[4-[(4-methylphenyl)thio]phenyl]sulfonyl]-amino]-propanamide, Monohydrochloride], for which the IC50 at recombinant human MMP-1 was above 10000 nM; on recombinant human MMP-13, 0.1 nM.

In the case of `O=C(CN(CCN1CCOCC1)S(=O)(=O)c1ccc(SC2CCCCC2)cc1)NO` [Example 5f, [[[4-(Cyclohexylthio)phenyl]sulphonyl][2-(4-morpholinyl)ethyl]amino]-N-hydroxyacetamide], the IC50 at recombinant human MMP-1 was above 10000 nM; at recombinant human MMP-13, 1.6 nM.

Regarding `O=C(CN(CCN1CCOCC1)S(=O)(=O)c1ccc(Sc2ccccc2)cc1)NO` [Example 6e, 2-[[[4-(phenylthio)phenyl]sulphonyl][2-(4-morpholinyl)ethyl]amino]-N-hydroxyacetamide, Hydrochloride], the values for the half-maximal inhibitory concentration (IC50) on recombinant human MMP-1 and on recombinant human MMP-13 were 4000 nM and 0.1 nM, respectively.

In the case of `CC(C)[C@H](C(=O)NO)N(CCN1CCOCC1)S(=O)(=O)c1ccc(Sc2ccccc2)cc1` [Example 7f, N-hydroxy-3-methyl-2R-[[(4-phenylthio)-phenyl]-sulfonyl]-[2-(4-morpholinyl)-ethyl]amino]-butanamide, Monohydrochloride], the IC50 on recombinant human MMP-1 was determined as 560 nM; at recombinant human MMP-13 it was 0.3 nM.

For `CC(C)[C@H](C(=O)NO)N(CCN1CCCCC1)S(=O)(=O)c1ccc(Sc2ccccc2)cc1` [Example 8d, N-hydroxy-3-methyl-2R-[[(4-phenylthio)-phenyl]-sulfonyl]-[2-(1-piperidinyl)-ethyl]amino]-butanamide, Monohydrochloride], the figures for the IC50 on recombinant human MMP-1 and at recombinant human MMP-13 were 500 nM and 1 nM, respectively.

For `CNC(=O)[C@@H](NC(=O)[C@H](CC(C)C)[C@H](O)C(=O)NO)C(C)(C)C` [marimastat], the “rise of cancer-specific antigens used as surrogate markers for biological activity” value in data set [1] (Phase I/II, patients with advanced, treatment-refractory solid tumor cancers) is “dose-related reduction”. For the same compound, the “most common drug-related toxicity” value in data set [1] (clinical trials, patients) is “musculoskeletal pain and stiffness”.

By IC50 is commonly meant the point on the concentration scale where inhibition reaches its midpoint.
